What was measured:
[1] = tested on: Sb-1, VSV, VV, HSV-1; test: organism not typed; assay type: cell-based; details: Vero 76, read-out: EC50 Sb-1, VSV, VV, HSV-1
[2] = tested on: CV-B5; test: microbe, parasite or virus in culture; assay type: cell-based, Human Enterovirus B [coxsackie type B5 (CV-B5)]; details: Enterovirus B, CVB5, Vero 76, read-out: EC50 CV-B5
[3] = tested on: BVDV; test: microbe, parasite or virus in culture; assay type: cell-based; details: Bovine viral diarrhea virus isolates and strains, MDBK, read-out: EC50 BVDV
[4] = Cytotoxicity, MTT method, MT-4 cells; details: human
[5] = tested on: HIV-1IIIB; test: microbe, parasite or virus in culture; assay type: cell-based, Human Immunodeficiency Virus type-1 (HIV-1); details: Human immunodeficiency virus 1, MT4, read-out: EC50 HIV-1IIIB
[6] = tested on: RSV; test: microbe, parasite or virus in culture; assay type: cell-based, Human Respiratory Syncytial Virus (RSV) strain A2; details: human respiratory syncytial virus, Vero 76, read-out: EC50 RSV
[7] = tested on: YFV; test: microbe, parasite or virus in culture; assay type: cell-based; details: Yellow fever virus, BHK, read-out: EC50 YFV
[8] = tested on: Reo-1; test: microbe, parasite or virus in culture; assay type: cell-based, Reovirus type-1 (Reo-1); details: Reovirus sp., BHK, read-out: EC50 Reo-1
[9] = in vitro; details: cattle (Bos taurus)
[10] = Cytotoxicity, MTT method, BHK cells; details: Syrian hamster (Mesocricetus auratus)
[11] = Cytotoxicity, MTT method, Vero-76 cells; details: African green monkey (Cercopithecus aethiops)

SMILES	EC50 [1] [µM]	EC50 [2] [µM]	EC50 [3] [µM]	CC50 [4] [µM]	EC50 [5] [µM]	EC50 [6] [µM]	EC50 [7] [µM]	EC50 [8] [µM]	CC50 [9] [µM]	CC50 [10] [µM]	CC50 at 5 days [11] [µM]	melting point [°C]	CC50 ([4]; MT-4 cells (mock-infected)) [µM]	CC50 ([10]; BHK cells (BHK-21, mock-infected)) [µM]	CC50 ([11]; Vero-76 cells (mock-infected)) [µM]
Nc1ccc(-n2nc3cc(Cl)c(Cl)cc3n2)cc1 [1b, 2-(4-aminophenyl)-5,6-dichlorobenzotriazole]	> 100	> 100	20	52	> 52	6	> 100	> 100	≥ 100	> 100	> 100	–	–	–	–
CCCC(=O)N(C(=O)CCC)c1ccc(-n2nnc3cc(Cl)c(Cl)cc32)cc1 [5d, N-butyryl-N-[4-(5,6-dichloro-1H-benzo[d][1,2,3]triazol-1-yl)phenyl] butyramide]	> 20	> 20	> 14	35	> 35	> 30	> 16	> 16	14	16	20	202 to 204	–	–	–
O=C1Nc2ccc(Cl)cc2[C@@](C#CC2CC2)(C(F)(F)F)O1 [EFV, Efavirenz, reference compound]	–	–	–	–	0.002 ± 0.0002	–	–	–	–	–	–	–	40	–	–
CCNC(=O)Nc1ccc(-n2nc3cc(Cl)c(Cl)cc3n2)cc1 [10a, 1-[4-(5,6-dichloro-2H-benzo[d][1,2,3]triazol-2-yl)phenyl]-3-ethylurea]	> 100	> 100	> 100	> 100	> 100	> 100	> 100	> 100	> 100	> 100	> 100	> 290	–	–	–
CCC(=O)Nc1ccc(-n2nc3cc(Cl)c(Cl)cc3n2)cc1 [6b, N-[4-(5,6-dichloro-2H-benzo[d][1,2,3]triazol-2-yl)phenyl]propanamide]	> 100	> 100	> 100	> 100	> 100	> 100	> 100	> 100	> 100	> 100	> 100	258 to 260	–	–	–
O=C(Nc1ccc(-n2nc3cc(Cl)c(Cl)cc3n2)cc1)c1ccccc1 [8a, N-[4-(5,6-dichloro-2H-benzo[d][1,2,3]triazol-2-yl)phenyl]benzamide]	> 100	> 100	> 100	> 100	> 100	> 100	> 100	> 100	> 100	> 100	> 100	> 290	–	–	–
N#Cc1ccc(C(=O)Nc2ccc(-n3nnc4cc(Cl)c(Cl)cc43)cc2)cc1 [7h, N-[4-(5,6-dichloro-1H-benzo[d][1,2,3]triazol-1-yl)phenyl] 4-cyanobenzamide]	> 100	> 100	> 100	> 100	> 100	11	> 100	> 100	> 100	> 100	> 100	227 to 229	–	–	–
O=C(Nc1ccc(-n2nc3cc(Cl)c(Cl)cc3n2)cc1)c1ccc([N+](=O)[O-])cc1 [8e, N-[4-(5,6-dichloro-2H-benzo[d][1,2,3]triazol-2-yl)phenyl]-4-nitrobenzamide]	> 100	> 100	4	> 100	> 100	33	> 68	> 68	> 100	68	> 100	> 297	–	–	–
COc1ccc(C(=O)Nc2ccc(-n3nc4cc(Cl)c(Cl)cc4n3)cc2)cc1 [8c, N-[4-(5,6-dichloro-2H-benzo[d][1,2,3]triazol-2-yl)phenyl]-4-methoxybenzamide]	> 100	14	> 100	–	> 100	> 100	> 100	> 100	> 100	–	> 100	274 to 276	> 100	> 100	–
O=C(Nc1ccc(Cl)cc1)Nc1ccc(-n2nc3cc(Cl)c(Cl)cc3n2)cc1 [10h, 1-[4-(5,6-dichloro-2H-benzo[d][1,2,3]triazol-2-yl)phenyl]-3-(4-chlorophenyl)urea]	> 100	> 100	> 100	> 100	> 100	> 100	> 100	> 100	> 100	> 100	> 100	> 290	–	–	–
CCCC(=O)Nc1ccc(-n2nnc3cc(Cl)c(Cl)cc32)cc1 [5c, N-[4-(5,6-dichloro-1H-benzo[d][1,2,3]triazol-1-yl)phenyl]butanamide]	> 100	9	> 100	60	> 60	4	> 100	> 100	> 100	> 100	10	202 to 204	–	–	–
COc1ccc(NC(=O)Nc2ccc(-n3nc4cc(Cl)c(Cl)cc4n3)cc2)cc1 [10g, 1-[4-(5,6-dichloro-2H-benzo[d][1,2,3]triazol-2-yl)phenyl]-3-(4-methoxyphenyl)urea]	> 100	> 100	> 100	> 100	> 100	> 100	> 100	> 100	> 100	> 100	> 100	> 290	–	–	–
C[C@@]1(O)[C@H](O)[C@@H](CO)O[C@H]1n1cnc2c(=O)[nH]c(N)nc21 [2MG, 2’-C-methyl-guanosine, reference compound]	–	–	1.1 ± 0.1	–	–	–	1.9 ± 0.1	0.7 ± 0.2	> 100	> 100	–	–	–	–	–
Cc1cc(CCCOc2c(C)cc(-c3noc(C(F)(F)F)n3)cc2C)on1 [PCL, Pleconaril, reference compound]	–	0.005 ± 0.001	–	–	–	–	–	–	–	–	–	–	–	–	> 100
Nc1ccc(-n2nnc3cc(Cl)c(Cl)cc32)cc1 [1a, 1-(4-aminophenyl)-5,6-dichlorobenzotriazole]	> 100	85	75	> 100	> 100	20	> 100	> 100	> 100	> 100	> 100	–	–	–	–
Cc1ccc(NC(=O)Nc2ccc(-n3nc4cc(Cl)c(Cl)cc4n3)cc2)cc1 [10f, 1-[4-(5,6-dichloro-2H-benzo[d][1,2,3]triazol-2-yl)phenyl]-3-(4-methylphenyl)urea]	> 100	> 100	> 100	> 100	> 100	> 100	> 100	> 100	> 100	> 100	> 100	–	–	–	–
